Assay results from patent US8455397B2, “Penoxsulam as a turfgrass, vineyard and orchard floor herbicide” (Dow AgroSciences, LLC, priority 2005, dated 2013).

Tested on: Hydrocotyle species (HYDSS)
Assay: Post emergent synergy field study, penoxsulam + dicamba granule
Type: in vivo
Conditions: 112 gai/Ha on 30-3-4 granule fertilizer, average of 2 studies 4 weeks after application
Procedure: Field and greenhouse studies were conducted to determine if there may be any synergistic response when penoxsulam is combined with other herbicides for post emergence broadleaf or sedge control. Field studies were conducted in established turfgrass sites containing a natural population of target broadleaf weeds. Replicated trials, containing a minimum of three replications and having individual plots ranging in size from 25 to 50 ft. sq (2.3 to 4.6 square meters), were initiated in the late spring when turf and weeds were actively growing. Granule treatments were uniformly applied to individual plots using a common hand-shaker method. Applications were made in the early morning when dew was present. Natural rainfall and supplemental irrigation were used to maintain healthy turf and active weed growth throughout the study period. Control of each weed species in the study site was made at 2, 4 and 8 weeks after treatment. Control was determined visually by comparing treated and untreated weeds and scored on a 0 to 100 percent scale where 0 corresponds to no control and 100 corresponds to complete kill.
Component A was penoxsulam at 0.02 or 0.04 lb ai/A. Component B was dicamba at 0.1 lb ai/A. Individual products and mixture were applied on a 30-3-4 granule fertilizer formulated to deliver 116 pounds fertilizer per acre (129 kg per hectare). Loadings for the individual component on the fertilizer were: • Penoxsulam 22.4 gai/Ha (0.02 lb ai/A)=0.017% • Penoxsulam 44.9 gai/Ha (0.04 lb ai/A)=0.034% • Dicamba 112 gae/Ha (0.1 lb ai/A)=0.086%
For combinations the same loadings were applied to the same granule carrier and applied as a single product to test area.

With `COc1c(Cl)ccc(Cl)c1C(=O)O` [Dicamba, dicamba, reference compound] as the molecule, how does the “% Control Component B” value read?
The value was 29%.
